Here are results for 34 compounds from patent EP4733303A1, “MUSCARINIC M4 RECEPTOR AGONIST AND USE THEREOF” (Haisco Pharmaceutical Group Co., Ltd., priority 2023, dated 2024).

In general, Cmax refers to the maximum level reached in the sampled fluid or tissue. As a reminder, the clearance is the rate of elimination divided by the concentration. A lower clearance goes with a low capacity for elimination. The half-life is the time needed for the level to fall by half in the phase considered. As a reminder, the EC50 is the concentration needed to bring the measured effect to its halfway point.

A value given as a limit tells only on which side of the number the result lay.

Data set [1] in a line: Pharmacokinetic test in rats (plasma and brain). The class given is in vivo, SD rats. The conditions noted are these: male SD rats. An excerpt:
3.1 Experimental animals: male SD rats, about 220 g, 6-8 weeks old, divided into an intravenous group and an intragastric group.
3.2 Experimental design: on the day of the experiment, the SD rats were randomly grouped according to their body weights. […] Table 5. Administration information
The whole blood was centrifuged to separate the plasma; the brain tissue was rinsed with cold physiological saline to remove the residual blood on the surface, drained out and then homogenized. Before analysis and detection, all samples were stored at -80°C, and the samples were quantitatively analysed by LC-MS/MS. Table 6. Pharmacokinetic parameters of test compound in plasma of rats

A further data set concerns the target T1, M4 receptor (Homo sapiens, UniProt P08173).
T1 construct: expressed in transfected cells; host or cells: CHO (M4-CHO cells)
T1 sequence (P08173 1-479): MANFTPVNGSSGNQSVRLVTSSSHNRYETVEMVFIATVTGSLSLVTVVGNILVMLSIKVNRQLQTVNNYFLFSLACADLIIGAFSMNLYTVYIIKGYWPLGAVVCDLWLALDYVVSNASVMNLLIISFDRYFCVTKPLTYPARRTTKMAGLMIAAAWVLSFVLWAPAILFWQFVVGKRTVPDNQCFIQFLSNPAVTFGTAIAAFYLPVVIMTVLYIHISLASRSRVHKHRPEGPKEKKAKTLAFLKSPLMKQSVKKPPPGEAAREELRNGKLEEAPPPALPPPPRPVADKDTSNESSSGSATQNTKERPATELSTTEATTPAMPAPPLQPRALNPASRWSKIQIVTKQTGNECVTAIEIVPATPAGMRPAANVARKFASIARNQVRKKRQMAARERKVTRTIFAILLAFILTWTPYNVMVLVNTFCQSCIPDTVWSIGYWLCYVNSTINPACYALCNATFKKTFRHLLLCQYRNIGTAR
In words: PAM agonistic activity of compound on M4 receptor (FLIPR Calcium 6 assay in M4-CHO cells). In kind it is cell-based. The settings on record: with acetylcholine (Ach), final concentration 3 nM. The procedure:
• 1). Cell plating: M4-CHO cells were digested, collected, and resuspended. After cell counting, the cell suspension was seeded into a 384-well cell plate at a density of: 1.2 × 10^4 cells/25 µL/well. The cell plate was then cultured in a 37°C, 5% CO2 incubator for about 16-20 h. • 2). Day 2: Assay Buffer was prepared according to the instructions of the FLIPR Calcium 6 Assay Kit. Component A (20×) was thawed to room temperature and diluted with the Assay Buffer to prepare a loading buffer (1×), which was stored at room temperature until use. • 3). The culture medium was removed from the cell plate. 40 µL of the loading buffer (1×) was quickly added to each well. The cell plate was then centrifuged and incubated at 37°C in the dark for 120 min. • 4). Working solutions of the positive control compound and the test compounds were prepared. An acetylcholine (Ach) agonist compound solution was prepared (final concentration: 3 nM). The PAM compound and the Ach agonist solution were mixed at a 1 : 1 ratio, and the mixture was transferred into a 384-well compound source plate at 20 µL per well. • 5). The cell plate, the compound source plate, and the pipette tips were placed into the corresponding positions within the FLIPR instrument. 10 µL of the diluted compound from step 4 was added into each experimental well using the FLIPR Tetra. Data was collected at the wavelength of 515 nm-575 nm. • 6). The signal values were plotted against the compound concentrations. Nonlinear regression analysis was performed using GraphPad Prism software for curve fitting and EC50 calculation.
The experimental results are shown in Table 1, where A represents EC50 < […]; B represents 100 nM ≤ EC50 < 500 nM, and C represents 500 nM ≤ EC50. Table 1. Agonistic activity of compounds on M4 receptor

Data set [2] can be described thus: Pharmacokinetic test in mice (plasma and brain). In kind it is in vivo, C57 mice. The conditions noted are these: for F: i.g. 10 mg/kg versus i.v. 2.5 mg/kg. An excerpt: 2.1 Experimental animals: male C57 mice, 20-25 g, divided into an intravenous group and an intragastric group.
2.2 Experimental design: on the day of the experiment, the C57 mice were randomly grouped according to their body weights. […] Table 2. Administration information
The whole blood was centrifuged to separate the plasma; the brain tissue was rinsed with cold physiological saline to remove the residual blood on the surface, drained out and then homogenized. Before analysis and detection, all samples were stored at -80°C, and the samples were quantitatively analysed by LC-MS/MS. Table 3. Pharmacokinetic parameters of test compounds in mice

Where [3] appears, read: rat, in vivo, plasma, i.v. 2.5 mg/kg and i.g. 10 mg/kg groups, route of the parameter not given.
Setting [4] is: mouse, male C57 mice, plasma, i.v. 2.5 mg/kg and i.g. 10 mg/kg groups, route of the parameter not given.
The mark [5] stands for this setting: mouse, male C57 mice, plasma, i.v. 2.5 mg/kg and i.g. 10 mg/kg groups, route of the parameter not given, read-out: AUC0-t.
[6] abbreviates: mouse, in vivo, male C57 mice, plasma, i.v. 2.5 mg/kg and i.g. 10 mg/kg groups, route of the parameter not given.

`Cc1cc(C)c2c(n1)CN(C(=O)CC1CN(c3ccnc(-n4ccc(C)n4)c3)C1)C2` [Compound 29]: the F in data set [1] (i.g. 10 mg/kg versus i.v. 2.5 mg/kg) was greater than 98%. In data set [1] (setting [3]), the Cmax turned out to be 7960 ng/mL, the clearance is 18.9 mL/min/kg and the half-life is 0.646 h. Besides, the AUC(0-t) in data set [1] (rat, in vivo, plasma, i.v. 2.5 mg/kg and i.g. 10 mg/kg groups, route of the parameter not given, read-out: AUC0-t) was 12200 ng·h/mL. Besides, the EC50 at M4 receptor is less than 100 nM.

In data set [2] (male C57 mice), `Cc1cc(-c2cnn(C)c2)nc2c1CN(C(=O)CC1CN(c3ccnc(OC4CC(F)(F)C4)c3)C1)C2` [Compound 104] registered an F greater than 98%. Further, the “Brain tissue AUC0-t” value in data set [2] (mice, i.g. (10 mg/kg)) is 4776 ng·h/g. Further, the Kp in data set [2] (mouse, in vivo, po, mice, i.g. (10 mg/kg), read-out: Brain/plasma ratio) worked out at 0.528. Further, in data set [2] (mouse, in vivo, po, mice, i.g. (10 mg/kg), read-out: Plasma AUC0-t), the AUC(0-t) amounted to 2520 ng·h/mL. Moreover, in data set [2] (setting [4]), the Cmax is 4540 ng/mL, the clearance was 11.1 mL/min/kg and the half-life was 2.2 h. In addition, the AUC(0-t) in data set [2] (setting [5]) was 16900 ng·h/mL. Moreover, the EC50 on M4 receptor is less than 100 nM.

In the case of `Cc1nc(-c2cnn(C)c2)nc2c1CN(C(=O)CC1CN(c3ccnc(C(F)(F)F)c3)C1)C2` [Compound 122], the F in data set [2] (male C57 mice) is reported as greater than 98%. In data set [2] (setting [6]), this compound gave a Cmax of 6400 ng/mL, a clearance of 9.24 mL/min/kg and a half-life of 2.94 h. Also, the AUC(0-t) in data set [2] (mouse, in vivo, male C57 mice, plasma, i.v. 2.5 mg/kg and i.g. 10 mg/kg groups, route of the parameter not given, read-out: AUC0-t) was determined as 26300 ng·h/mL. For the same compound, the EC50 on M4 receptor was less than 100 nM. For the compound `Cc1cc(-c2cnn(C)c2)nc2c1CN(C(=O)CC1CN(c3ccnc(OC4CCOC4)c3)C1)C2` (centres unmarked) [Compound 170], the concentration for a half-maximal effect (EC50) on M4 receptor is less than 100 nM. Still for that read-out and setting: as for `Cc1cc(-c2cnn(C)c2)nc2c1CN(C(=O)CC1CN(c3ccnc(Oc4cnn(C)c4)c3)C1)C2` [Compound 171], the figure is less than 100 nM.

For the compound `Cc1ncn(-c2cc(C)c3c(n2)CN(C(=O)CC2CN(c4ccnc(C(F)(F)F)c4)C2)C3)n1` [Compound 172], the EC50 on M4 receptor is less than 100 nM.

On to `Cc1nc(-c2cnn(C(F)F)c2)nc2c1CN(C(=O)CC1CN(c3ccnc(C(F)(F)F)c3)C1)C2` [Compound 173], for which the concentration giving a half-maximal response (EC50) on M4 receptor is less than 100 nM. For the compound `Cc1ncc(-c2nc(C)c3c(n2)CN(C(=O)CC2CN(c4ccnc(C(F)(F)F)c4)C2)C3)s1` [Compound 174], the EC50 on M4 receptor was less than 100 nM. For the compound `Cc1c2c(n(C)c(=O)c1F)CN(C(=O)CC1CN(c3ccnc(OC4CC(F)(F)C4)c3)C1)C2` [Compound 175], the EC50 on M4 receptor is less than 100 nM. For `Cc1c2c(n(C)c(=O)c1F)CN(C(=O)CC1CN(c3ccnc(C(F)(F)F)c3)C1)C2` [Compound 176], at M4 receptor, the EC50 is less than 100 nM. Still for that read-out and setting: as for `Cc1c2c(n(C(F)F)c(=O)c1F)CN(C(=O)CC1CN(c3ccnc(OC4CC(F)(F)C4)c3)C1)C2` [Compound 177], the figure is less than 100 nM. Still for that read-out and setting: as for `Cc1c2c(n(C(F)F)c(=O)c1F)CN(C(=O)CC1CN(c3ccnc(C(F)(F)F)c3)C1)C2` [Compound 178], the figure is less than 100 nM. Take `Cc1ccn(-c2cc(N3CC(CC(=O)N4Cc5c(C)cc(=O)n(C(F)F)c5C4)C3)ccn2)n1` [Compound 179]: the EC50 on M4 receptor is less than 100 nM.

Turning to `Cc1cc(=O)n(C(F)F)c2c1CN(C(=O)CC1CN(c3ccnc(OC4CCOC4)c3)C1)C2` (centres unmarked) [Compound 180], the EC50 on M4 receptor was less than 100 nM.

Turning to `Cc1cc(=O)n(C(F)F)c2c1CN(C(=O)CC1CN(c3ccnc(Oc4cnn(C)c4)c3)C1)C2` [Compound 182], the EC50 on M4 receptor is less than 100 nM. Same read-out and setting: as for `C=C1CC(Oc2cc(N3CC(CC(=O)N4Cc5c(C)cc(=O)n(C(F)F)c5C4)C3)ccn2)C1` [Compound 184], the figure is less than 100 nM. Turning to `Cc1cc(S(C)(=O)=O)nc2c1CN(C(=O)CC1CN(c3ccnc(OC4CC(F)(F)C4)c3)C1)C2` [Compound 188], the EC50 on M4 receptor was less than 100 nM. For the compound `Cc1cc(C)c2c(n1)CN(C(=O)CC1CN(c3ccnc(Cn4cc(C(F)(F)F)cn4)c3)C1)C2` [Compound 189], at M4 receptor, the EC50 was less than 100 nM. As for `Cc1c2c(n(C(F)F)c(=O)c1F)CN(C(=O)CC1CN(c3ccnc(OC4CC4)c3)C1)C2` [Compound 195], the EC50 on M4 receptor was less than 100 nM. Same read-out and setting: for `Cc1c2c(n(C(F)F)c(=O)c1F)CN(C(=O)CC1CN(c3ccnc(OC4CCOC4)c3)C1)C2` (centres unmarked) [Compound 198] the value was less than 100 nM; for `Cc1c2c(n(C)c(=O)c1F)CN(C(=O)CC1CN(c3ccnc(OC4CCOC4)c3)C1)C2` (centres unmarked) [Compound 199], less than 100 nM; for `Cc1cc(=O)n(C(F)F)c2c1CN(C(=O)CC1CN(c3ccnc(OC4CC(=C(F)F)C4)c3)C1)C2` (centres unmarked) [Compound 200], less than 100 nM. The same measure, in the same setting: for `Cc1c2c(n(C(F)F)c(=O)c1F)CN(C(=O)CC1CN(c3ccnc(OC4CC(=C(F)F)C4)c3)C1)C2` (centres unmarked) [Compound 201] the value was less than 100 nM; for `Cc1cc(-c2cnn(C)c2)nc2c1CN(C(=O)CC1CN(c3nc(C4CC4)ncc3F)C1)C2` [Compound 204], less than 100 nM; for `Cc1nc(-c2cnn(C)c2)nc2c1CN(C(=O)CC1CN(c3nc(C4CC4)ncc3F)C1)C2` [Compound 207], less than 100 nM. Take `Cc1ccn(-c2cc(N3CC(CC(=O)N4Cc5c(C)c(F)c(=O)n(C(F)F)c5C4)C3)ccn2)n1` [Compound 208]: the EC50 on M4 receptor was less than 100 nM. For `Cc1ccn(-c2cc(N3CC(CC(=O)N4Cc5c(C)c(F)c(=O)n(C)c5C4)C3)ccn2)n1` [Compound 209], the EC50 on M4 receptor was less than 100 nM. On to `Cc1c2c(n(C)c(=O)c1F)CN(C(=O)CC1CN(c3ccnc(OC4CCOC4)c3)C1)C2` (centres unmarked) [Compound 210], for which the EC50 at M4 receptor is less than 100 nM. Turning to `Cc1ncn(-c2cc(N3CC(CC(=O)N4Cc5c(C)c(F)c(=O)n(C)c5C4)C3)ccn2)n1` [Compound 211], at M4 receptor, the EC50 was less than 100 nM.

With `Cc1c2c(n(C)c(=O)c1F)CN(C(=O)CC1CN(c3ccnc(OC4CC(=C(F)F)C4)c3)C1)C2` (centres unmarked) [Compound 213], the EC50 at M4 receptor is less than 100 nM. On the same count and under the same terms, for `Cc1c2c(n(C)c(=O)c1F)CN(C(=O)CC1CN(c3ccnc(Oc4cnn(C)c4)c3)C1)C2` [Compound 214] the value was less than 100 nM; for `Cc1c2c(n(C)c(=O)c1F)CN(C(=O)CC1CN(c3ccnc(OC4CC4)c3)C1)C2` [Compound 215], less than 100 nM; for `Cc1cc(-c2cnoc2)nc2c1CN(C(=O)CC1CN(c3ccnc(OC4CC(F)(F)C4)c3)C1)C2` [Compound 216], less than 100 nM. In turn, `Cc1cc(C)c2c(n1)CN(C(=O)CC1CN(c3ccnc(C(F)(F)F)c3)C1)C2` [DZ-01, reference compound] yielded a F in data set [2] (male C57 mice) greater than 98%. For the same compound, in data set [2] (setting [4]), the peak level (Cmax) was 3800 ng/mL, the clearance came out at 75.1 mL/min/kg and the half-life was 1.23 h. For the same compound, the AUC(0-t) in data set [2] (setting [5]) worked out at 3610 ng·h/mL.
